The target of one test is T1, α1A receptor (Rattus norvegicus, UniProt P43140).
T1 construct: the α1A receptors are present on a membrane of a rat salivary gland; from tissue; host or cells: rat salivary gland membrane homogenate
T1 sequence (P43140 1-466): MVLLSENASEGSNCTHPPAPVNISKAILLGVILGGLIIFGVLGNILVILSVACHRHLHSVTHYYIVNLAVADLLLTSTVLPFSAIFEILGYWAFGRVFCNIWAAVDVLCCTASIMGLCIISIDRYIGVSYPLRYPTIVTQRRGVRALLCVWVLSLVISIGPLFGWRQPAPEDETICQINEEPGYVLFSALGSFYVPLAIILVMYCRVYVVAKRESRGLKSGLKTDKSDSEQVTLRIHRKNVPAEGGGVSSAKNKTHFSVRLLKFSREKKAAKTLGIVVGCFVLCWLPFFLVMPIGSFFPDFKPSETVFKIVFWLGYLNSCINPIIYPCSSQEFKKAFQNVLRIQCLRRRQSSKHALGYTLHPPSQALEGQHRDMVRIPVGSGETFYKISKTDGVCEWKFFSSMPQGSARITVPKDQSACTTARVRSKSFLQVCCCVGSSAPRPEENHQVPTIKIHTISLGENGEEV
The test can be described thus: α1 adrenergic receptor binding test ([3H]prazosin displacement, rat salivary gland membrane homogenate). The settings on record: [3H]prazosin 0.06 nM as ligand; membrane homogenate of rat salivary gland; 22° C., 60 minutes; specimens 0.02-20 μM. Here is the method:
The compound 19a synthesized in Examples above was weighed, to which 100% dimethylsulfoxide (DMSO) was added so as to prepare a solution at 10-fold of the final concentration. The solution was diluted with an assay buffer, to thereby prepare four types of specimens with different concentrations (0.02 μM, 0.2 μM, 2 μM, 20 μM). In addition, with respect to each of the compound 19b, the racemic mixture of the compounds 19a and 19b, and the racemic mixture of the compounds 20a and 20b, likewise, four types of specimens were prepared (see Mitchel, A. D. et al., (1989) Brt. J. Pharmacol., 98: 883-889).
Next, as the α1 adrenergic receptor, an α1A receptor (one of subtypes of the α1 adrenergic receptor) was used, and a binding ability to the α1A receptor was examined.
It has been known that the α1A receptors are present on a membrane of a rat salivary gland. To an assay buffer (250 μL) containing a membrane homogenate of a rat salivary gland (150 μg in terms of protein amount) were added the above-mentioned specimen and [^3H]prazosin (0.06 nM) as ligand, to thereby prepare a reaction liquid, which was then incubated at 22° C. for 60 minutes. After the incubation, the reaction liquid was subjected to suction filtration using a glass fiber filter (GF/B, manufactured by Packard) which had been washed with 0.3% PEI (polyethyleneimine), to terminate reaction. The glass fiber filter was washed with 50 mM Tris-HCl cooled with ice, washing being repeated several times. The glass fiber filter was dried, a scintillation cocktail (Microscint 0, manufactured by Packard) was added thereto, and residual radioactivity on the filter was measured using a liquid scintillation counter (Topcount, manufactured by Packard). An amount of specific binding of [^3H]prazosin was obtained by subtracting an amount of non-specific binding in the presence of phentolamine (10 μM) from a total binding amount of [^3H]prazosin.

The next test concerns α1 adrenergic receptor. The test can be described thus: Rat tail artery constriction inhibition test. Particulars: phenylephrine 10 μM, compound 1 μM, 100 μM in organ bath, other receptors blocked with antagonists. The protocol:
Since the α1 adrenergic receptor antagonist has been known to have a vasoconstriction inhibition effect, the constriction inhibition effect of the compounds was examined using rat tail artery.
The compound 19a synthesized in Examples above was weighed, to which 100% dimethylsulfoxide (DMSO) was added so as to prepare a sample solution (stock solution) (concentration of the compound 19a: 100 mM). In addition, the compound 19b, the racemic mixture of the compounds 19a and 19b, and the racemic mixture of the compounds 20a and 20b were prepared likewise.
A tissue (rat tail artery) with an exposed endothelium was suspended in an organ bath filled with 20 mL of saline (NaCl: 118.0 mM, KCl: 4.7 mM, MgSO4: 1.2 mM, CaCl2: 2.5 mM, NaHCO3: 25 mM, glucose: 11.0 mM) (pH7.4) at 37° C., into which 95% oxygen/5% carbon dioxide had been fed. In the rat tail artery tissue, the α2 adrenergic receptor, β adrenergic receptor, histamine H1 receptor, muscarine receptor, and 5-HT2 receptor had been expressed like the α1 adrenergic receptor had, and in order to block the actions of these receptors, antagonistic agents (antagonists) for the respective receptor, i.e., yohimbine (1 μM), propranol (1 μM), pyrilamine (1 μM), atropine (1 μM), and methysergide (1 μM), were added.
In order to measure the contraction of the tissue caused by an action of the α1 adrenergic receptor, the tissue was connected to a force transducer which outputs a tension of the tissue as data. The tension in a static state was adjusted to become 1 g, and was maintained for 60 minutes (during that time period, the tissue was repeatedly washed with saline to readjust the tension). To the tissue was added 10 μM of a reference agonist (phenylephrine 1.0E-05M), and it was confirmed that the tissue responded in a normal manner. At the same time, there was recorded the tension (g) obtained by the contraction of the tissue caused by the action of the reference agonist. After confirming that the tissue responded in a normal manner, the reference agonist was washed out once, and the tissue was allowed to stand still for up to 15 minutes until the response returns to a static state (tension: 1 g).
After the response returned to the static state (tension: 1 g), the reference agonist was added so that the contraction rate of the tissue becomes 100%.
Next, the sample solution or a diluted solution thereof was added in such a manner that each of the concentrations of the compound 19a, the compound 19b, the racemic mixture of the compounds 19a and 19b, and the racemic mixture of the compounds 20a and 20b in the organ bath was increased in three stages (1 μM, 10 μM, 100 μM). Every time the concentration was increased, the tension was measured, and the contraction rate was calculated using the following equation. […]

Four compounds from patent US8110601B2, “Compound, α1 adrenergic receptor antagonistic agent, and composition” (Suntory Holdings Limited, priority 2007, dated 2012) can be followed below.

Regarding `COC(=O)C1c2cc(C=CC(=O)NCCCCNC(=N)N)ccc2OC1c1ccc(O)cc1` (racemic) [racemic mixture of the compounds 19a and 19b, methyl-5-(1E)-[[4-(aminoiminomethyl)amino]butylamino]-3-oxo-1-propenyl]-2,3-dihydro-2-(4-hydroxyphenyl)-3-benzofurancarboxylate], the IC50 at α1A receptor was 2390 nM. In addition, in the test with α1 adrenergic receptor, the “effect on contraction of rat tail artery caused by reference agonist (phenylephrine)” value (from here on “effect on contraction”) was “suppressed a response in the reference agonist (phenylephrine) in a dosage-dependent manner”.

In the case of `COC(=O)[C@@H]1c2cc(/C=C/C(=O)NCCCCNC(=N)N)ccc2O[C@H]1c1ccc(O)cc1` [compound 19a], the IC50 at α1A receptor came to 2030 nM. For the same compound, the “effect on contraction” value with α1 adrenergic receptor is “suppressed a response in the reference agonist (phenylephrine) in a dosage-dependent manner”.

On to `COC(=O)[C@H]1c2cc(/C=C/C(=O)NCCCCNC(=N)N)ccc2O[C@@H]1c1ccc(O)cc1` [compound 19b], for which the IC50 at α1A receptor was 610 nM. In addition, the “effect on contraction” value with α1 adrenergic receptor is “suppressed a response in the reference agonist (phenylephrine) in a dosage-dependent manner”.

Turning to `N=C(N)NCCCCNC(=O)/C=C/c1ccc2c(c1)C(C(=O)O)C(c1ccc(O)cc1)O2` (racemic) [racemic mixture of the compounds 20a and 20b], the IC50 on α1A receptor stood at 1990 nM. Besides, in the test with α1 adrenergic receptor, the “effect on contraction” value is listed as “suppressed a response in the reference agonist (phenylephrine) in a dosage-dependent manner”.
